Data: patent US9120774B2 (University of Kansas, priority 2009, dated 2015)
Read-outs that look alike come from different tables or passages of the source.

How the values were obtained:
Type in all cases: cell-based
[1] = tested on: PC-3 (androgen independent prostate cancer cells); assay: Anti-proliferation activity against PC-3 cells; settings: for IC50: Homo sapiens
Description: (§1) Upon completion of synthesis of library of compounds in Examples 23 and 24, the compounds were evaluated for anti-proliferative activity against SkBr3 (Her2 overexpressing breast cancer cells), MCF-7 (estrogen receptor positive breast cancer cells), HCT-116 (colon cancer cells characterized by wild-type p53), PL45 (pancreatic cancer cells), LNCaP (androgen sensitive prostate cancer cells) and PC-3 (androgen independent prostate cancer cells) cell lines. […] The monosubstituted benzamide variants improved activity.
Cells were maintained in a 1:1 mixture of Advanced DMEM/F12 (Gibco) supplemented with non-essential amino acids, L-glutamine (2 mM), streptomycin (500 ng/mL), penicillin (100 units/mL), and 10% FBS. Cells were grown to confluence in a humidified atmosphere (37° C., 5% CO2), seeded (2000/well, 100 μl) in 96-well plates, and allowed to attach overnight. […] […] Cells incubated in 1% DMSO were used at 100% proliferation, and values were adjusted accordingly. IC50 values were calculated from separate experiments performed in triplicate using GraphPad Prism.

[2] = tested on: LNCaP (androgen sensitive prostate cancer cells); assay: Anti-proliferation activity against LNCaP cells; settings: for IC50: Homo sapiens, LNCaP, Table 6, 72 hours, MTS/PMS, mean ± standard deviation, read-out: IC50 LnCaP
Description: as §1
(§2) Cells were maintained in a 1:1 mixture of Advanced DMEM/F12 (Gibco) supplemented with non-essential amino acids, L-glutamine (2 mM), streptomycin (500 ng/mL), penicillin (100 units/mL), and 10% FBS. Cells were grown to confluence in a humidified atmosphere (37° C., 5% CO2), seeded (2000/well, 100 μl) in 96-well plates, and allowed to attach overnight. Compound or GDA at varying concentrations in DMSO (1% DMSO final concentration) was added, and cells were returned to the incubator for 72 hours. At 72 hours, the number of viable cells was determined using an MTS/PMS cell proliferation kit (Promega) per the manufacturer's instructions. Cells incubated in 1% DMSO were used at 100% proliferation, and values were adjusted accordingly. IC50 values were calculated from separate experiments performed in triplicate using GraphPad Prism.

[3] = tested on: MCF-7 (estrogen receptor positive breast cancer cells); assay: Anti-proliferation activity against MCF-7 cells (MTS/PMS); settings: for IC50: Homo sapiens, MCF7; for fold less active than the 8-methyl derivative: MCF-7 cells
Description: (§3) Upon completion of synthesis of library of compounds in Examples 23 and 24, the compounds were evaluated for anti-proliferative activity against SkBr3 (Her2 overexpressing breast cancer cells), MCF-7 (estrogen receptor positive breast cancer cells), HCT-116 (colon cancer cells characterized by wild-type p53), PL45 (pancreatic cancer cells), LNCaP (androgen sensitive prostate cancer cells) and PC-3 (androgen independent prostate cancer cells) cell lines.
as §2
as §2, with “μg/mL),” for “ng/mL),”, “μL)” for “μl)”

[4] = tested on: SkBr3 (Her2 overexpressing breast cancer cells); assay: Anti-proliferation activity against SkBr3 cells (MTS/PMS); settings: Homo sapiens, SK-BR-3
Description: as §3, §2
as §2, with “μg/mL),” for “ng/mL),”, “μL)” for “μl)”

[5] = PC-3, Table 6, 72 hours, MTS/PMS, mean ± standard deviation, read-out: IC50 PC-3
[6] = Table 6, 72 hours, MTS/PMS, mean ± standard deviation, read-out: IC50 MCF-7
[7] = Table 6, 72 hours, MTS/PMS, mean ± standard deviation, read-out: IC50 SKBr3
[8] = Table 19, 7-oxyalkylamino and 7-oxypiperidinyl analogues, read-out: IC50, MCF-7
[9] = Table 19, 7-oxyalkylamino and 7-oxypiperidinyl analogues, read-out: IC50, SKBr3

Row | Structure (SMILES) | IC50 ([1]; PC-3, 24 hr., read-out: IC50) [µM] | IC50 [2] [µM] | IC50 [1, 5] [µM] | fold increase in anti-proliferation activity versus the 6-H derivative ([1]; PC-3 cells) [fold] | IC50 [3, 6] [µM] | IC50 [4, 7] [µM] | times less active than the corresponding 6-H ([2]; LnCaP cells) [times] | fold increased activity versus the 8-methyl derivative ([1]; PC-3 cells) [fold] | fold less active than the 8-methyl derivative [3] [fold] | IC50 [3, 8] [µM] | IC50 [4, 9] [µM]
1 | COc1cccc(-c2cc(C(=O)Nc3cc4ccc(OCc5cccnc5)c(C)c4oc3=O)ccc2OC)c1 [3′,6-dimethoxy-N-(8-methyl-2-oxo-7-(pyridin-3-ylmethoxy)-2H-chromen-3-yl)-[1,1′-biphenyl]-3-carboxamide] | 3.8 | – | – | – | – | – | – | – | – | – | –
2 | COc1cccc(-c2cc(C(=O)Nc3cc4cc(OC)c(O[C@@H]5OC(C)(C)[C@H](OC)[C@@H](O)[C@H]5O)c(C)c4oc3=O)ccc2OC)c1 [26a, N-(7-((2S,3R,4S,5R)-3,4-dihydroxy-5-methoxy-6,6-dimethyltetrahydro-2H-pyran-2-yloxy)-6-methoxy-8-methyl-2-oxo-2H-chromen-3-yl)-3′,6-dimethoxybiphenyl-3-carboxamide] | – | 6.6 | 35.4 | 2 | > 100 | 58.8 ± 1.3 | – | – | – | – | –
3 | CCCOc1cc2cc(NC(=O)c3ccc(OC)c(-c4cccc(OC)c4)c3)c(=O)oc2c(C)c1O[C@@H]1OC(C)(C)[C@H](OC)[C@@H](O)[C@H]1O [26b, N-(7-((2S,3R,4S,5R)-3,4-dihydroxy-5-methoxy-6,6-dimethyltetrahydro-2H-pyran-2-yloxy)-8-methyl-2-oxo-6-propoxy-2H-chromen-3-yl)-3′,6-dimethoxybiphenyl-3-carboxamide] | – | 3 ± 0.6 | 5.6 ± 5.7 | 10 | > 100 | > 100 | – | – | – | – | –
4 | COc1cccc(-c2cc(C(=O)Nc3cc4cc(OC(C)C)c(O[C@@H]5OC(C)(C)[C@H](OC)[C@@H](O)[C@H]5O)c(C)c4oc3=O)ccc2OC)c1 [26c, N-(7-((2S,3R,4S,5R)-3,4-dihydroxy-5-methoxy-6,6-dimethyltetrahydro-2H-pyran-2-yloxy)-6-isopropoxy-8-methyl-2-oxo-2H-chromen-3-yl)-3′,6-dimethoxybiphenyl-3-carboxamide] | – | 14.4 ± 4.2 | 60.7 ± 9.1 | – | 66.9 ± 3.1 | 58.6 ± 5.4 | ~7 | – | – | – | –
5 | COc1cccc(-c2cc(C(=O)Nc3cc4ccc(O[C@@H]5OC(C)(C)[C@H](OC)[C@@H](O)[C@H]5O)c(Cc5ccccc5)c4oc3=O)ccc2OC)c1 [26e, N-(8-benzyl-7-((2R,3R,4S,5R)-3,4-dihydroxy-5-methoxy-6,6-dimethyltetrahydro-2H-pyran-2-yloxy)-2-oxo-2H-chromen-3-yl)-3′,6-dimethoxybiphenyl-3-carboxamide] | – | 49.7 ± 25 | > 100 | – | > 100 | > 100 | – | – | – | – | –
6 | COc1cccc(-c2cc(C(=O)Nc3cc4ccc(O[C@@H]5OC(C)(C)[C@H](OC)[C@@H](O)[C@H]5O)c(-c5ccccc5)c4oc3=O)ccc2OC)c1 [26f, N-(7-((2R,3R,4S,5R)-3,4-dihydroxy-5-methoxy-6,6-dimethyltetrahydro-2H-pyran-2-yloxy)-2-oxo-8-phenyl-2H-chromen-3-yl)-3′,6-dimethoxybiphenyl-3-carboxamide] | – | 1 ± 0.1 | > 100 | – | > 100 | 17.3 ± 3.4 | – | – | – | – | –
7 | CCc1c(O[C@@H]2OC(C)(C)[C@H](OC)[C@@H](O)[C@H]2O)ccc2cc(NC(=O)c3ccc(OC)c(-c4cccc(OC)c4)c3)c(=O)oc12 [26h, N-(7-((2R,3R,4S,5R)-3,4-dihydroxy-5-methoxy-6,6-dimethyltetrahydro-2H-pyran-2-yloxy)-8-ethyl-2-oxo-2H-chromen-3-yl)-3′,6-dimethoxybiphenyl-3-carboxamide] | – | 1.6 ± 0.3 | 1.8 ± 0.6 | – | 41.7 ± 14 | 28.6 ± 1.1 | – | 10 | – | – | –
8 | COc1cc2cc(NC(=O)c3cc4ccccc4[nH]3)c(=O)oc2c(C)c1O[C@@H]1OC(C)(C)[C@H](OC)[C@@H](O)[C@H]1O [26i, N-(7-((2S,3R,4S,5R)-3,4-dihydroxy-5-methoxy-6,6-dimethyltetrahydro-2H-pyran-2-yloxy)-6-methoxy-8-methyl-2-oxo-2H-chromen-3-yl)-1H-indole-2-carboxamide] | – | 10.5 ± 0.3 | 20.2 ± 9.8 | – | 24.4 ± 1.2 | 25.1 ± 7.7 | – | – | – | – | –
9 | CCCOc1cc2cc(NC(=O)c3cc4ccccc4[nH]3)c(=O)oc2c(C)c1O[C@@H]1OC(C)(C)[C@H](OC)[C@@H](O)[C@H]1O [26j, N-(7-((2S,3R,4S,5R)-3,4-dihydroxy-5-methoxy-6,6-dimethyltetrahydro-2H-pyran-2-yloxy)-8-methyl-2-oxo-6-propoxy-2H-chromen-3-yl)-1H-indole-2-carboxamide] | – | 1.8 ± 0.7 | 6.2 ± 1.8 | – | 2.1 ± 0.1 | 2.1 ± 0.8 | – | – | – | – | –
10 | CO[C@@H]1[C@@H](O)[C@@H](O)[C@H](Oc2c(OC(C)C)cc3cc(NC(=O)c4cc5ccccc5[nH]4)c(=O)oc3c2C)OC1(C)C [26k, N-(7-((2S,3R,4S,5R)-3,4-dihydroxy-5-methoxy-6,6-dimethyltetrahydro-2H-pyran-2-yloxy)-6-isopropoxy-8-methyl-2-oxo-2H-chromen-3-yl)-1H-indole-2-carboxamide] | – | 11.4 | 11.9 | – | 20 ± 1 | 20.7 ± 0.4 | – | – | – | – | –
11 | CO[C@@H]1[C@@H](O)[C@@H](O)[C@H](Oc2ccc3cc(NC(=O)c4cc5ccccc5[nH]4)c(=O)oc3c2-c2ccccc2)OC1(C)C [26n, N-(7-((2R,3R,4S,5R)-3,4-dihydroxy-5-methoxy-6,6-dimethyltetrahydro-2H-pyran-2-yloxy)-2-oxo-8-phenyl-2H-chromen-3-yl)-1H-indole-2-carboxamide] | – | 27.6 ± 10.8 | 28 ± 12.1 | – | 22.9 ± 2.1 | 38.8 ± 8.3 | – | – | 40 | – | –
12 | COc1c(O[C@@H]2OC(C)(C)[C@H](OC)[C@@H](O)[C@H]2O)ccc2cc(NC(=O)c3cc4ccccc4[nH]3)c(=O)oc12 [26o, N-(7-((2S,3R,4S,5R)-3,4-dihydroxy-5-methoxy-6,6-dimethyltetrahydro-2H-pyran-2-yloxy)-8-methoxy-2-oxo-2H-chromen-3-yl)-1H-indole-2-carboxamide] | – | > 100 | > 100 | – | > 100 | 9.7 ± 1 | – | – | – | – | –
13 | CCc1c(O[C@@H]2OC(C)(C)[C@H](OC)[C@@H](O)[C@H]2O)ccc2cc(NC(=O)c3cc4ccccc4[nH]3)c(=O)oc12 [26p, N-(7-((2R,3R,4S,5R)-3,4-dihydroxy-5-methoxy-6,6-dimethyltetrahydro-2H-pyran-2-yloxy)-8-ethyl-2-oxo-2H-chromen-3-yl)-1H-indole-2-carboxamide] | – | > 100 | > 100 | – | 4.3 ± 2.5 | 4.3 ± 3.4 | – | – | 7 | – | –
14 | CC(C)=CCc1cc(C(=O)Nc2cc3ccc(OC4CCN(C)CC4)c(C)c3oc2=O)ccc1OC1CCN(C)CC1 [KU-458] | – | – | – | – | – | – | – | – | – | 0.15 | 0.095
15 | COc1c(OC2CCN(C)CC2)ccc2cc(NC(=O)c3ccc(OCCN(C)C)c(CC=C(C)C)c3)c(=O)oc12 [KU-459] | – | – | – | – | – | – | – | – | – | 0.09 | 0.29
